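Values below derive from 48-hour exposures of cells grown in 96-well plates, with endpoints linearly interpolated between the two concentrations bracketing the appropriate inhibition level. The concentration for 50% growth inhibition is given as GI50. TGI is the concentration that stops growth completely.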
Experiments:
Experiment in all cases: NCI anticancer screen, dose series, 48 h
UO-31 renal = system: UO-31 renal
MALME-3M melanoma = system: MALME-3M melanoma
SF-295 CNS = system: SF-295 CNS
RXF 393 renal = system: RXF 393 renal
SNB-75 CNS = system: SNB-75 CNS
LOX IMVI melanoma = system: LOX IMVI melanoma
MDA-N = system: MDA-N
CAKI-1 renal = system: CAKI-1 renal
BT-549 breast = system: BT-549 breast

Structure (SMILES) | TGI (UO-31 renal) | TGI (MALME-3M melanoma) | TGI (SF-295 CNS) | TGI (RXF 393 renal) | TGI (SNB-75 CNS) | TGI (LOX IMVI melanoma) | TGI (MDA-N) | TGI (CAKI-1 renal) | TGI (BT-549 breast) | GI50 (UO-31 renal) | GI50 (MALME-3M melanoma) | GI50 (SF-295 CNS) | GI50 (RXF 393 renal) | GI50 (SNB-75 CNS) | GI50 (LOX IMVI melanoma) | GI50 (BT-549 breast) | GI50 (CAKI-1 renal)
CCCC1C(C#N)(C#N)C(C#N)=C(N)C1(C)C(C)=O (stereo unspecified) | > 100 µM | > 100 µM | > 100 µM | > 100 µM | 96.9 µM | > 100 µM | > 100 µM | 21.6 µM | – | – | – | – | – | – | – | – | –
C1=C[C@]2(CCC13OCCO3)COc1ccccc12 | > 100 µM | – | > 100 µM | – | > 100 µM | 59 µM | > 100 µM | > 100 µM | – | – | – | – | – | – | – | – | –
CN(/N=C/c1ccc(Cl)c(Cl)c1)C1=NCCN1 | – | 36.9 µM | 69 µM | – | > 100 µM | 27.7 µM | 31.9 µM | 37.8 µM | 95.3 µM | – | – | – | – | – | – | – | –
O=[N+]([O-])c1ccc(Cl)cc1N/N=C/c1cccs1 | > 100 µM | – | > 100 µM | > 100 µM | > 100 µM | – | > 100 µM | > 100 µM | > 100 µM | – | – | – | – | – | – | – | –
Clc1ccc(-c2nn3c(C45CC6CC(CC(C6)C4)C5)nnc3s2)cc1 | > 100 µM | > 100 µM | > 100 µM | > 100 µM | > 100 µM | > 100 µM | – | > 100 µM | – | – | – | – | – | – | – | – | –
COC1=C(OC)C(=O)C(Cc2c(Cl)nc3n2CCS3)=C(C)C1=O | 28.3 µM | 21.6 µM | 30.4 µM | 36.4 µM | – | 29.3 µM | 26.8 µM | 46.7 µM | 27.5 µM | – | – | – | – | – | – | – | –
c1ccc(-c2nc3ccccc3n3nnnc23)cc1 | 1.57 µM | > 100 µM | – | > 100 µM | – | > 100 µM | > 100 µM | – | > 100 µM | – | – | – | – | – | – | – | –
N#CI1OC(C(F)(F)F)(C(F)(F)F)c2ccccc21 | 28.6 µM | – | > 100 µM | 32.4 µM | 32.4 µM | 43.3 µM | – | 28 µM | 40.9 µM | – | – | – | – | – | – | – | –
COC1=CCC2=C(CCN(C(=O)C3CCC3)C2Cc2ccc(OC)c(O)c2)C1 (stereo unspecified) | – | > 100 µM | 45.4 µM | 21.2 µM | 35.9 µM | > 100 µM | 9.04 µM | > 100 µM | – | – | – | – | – | – | – | – | –
COC1CCC(n2c([C@@H]3CCCC(=O)N3c3ccc(F)c(F)c3)nc3cc(-c4c(C)noc4C)ccc32)CC1 (stereo partly specified) | 14.5 µM | 17.7 µM | 29 µM | 17.7 µM | 0.961 µM | 16.9 µM | – | 12.7 µM | 27.2 µM | 1.64 µM | 1.74 µM | 6.72 µM | 4.82 µM | 0.0108 µM | 4.13 µM | 10.3 µM | 0.64 µM
c1ccc2nn(C3CCCCO3)nc2c1 (stereo unspecified) | > 100 µM | > 100 µM | > 100 µM | > 100 µM | > 100 µM | – | > 100 µM | > 100 µM | > 100 µM | – | – | – | – | – | – | – | –
CCOC(=O)C12C(=O)CCN1CCc1ccccc1C2C (stereo unspecified) | > 100 µM | > 100 µM | > 100 µM | > 100 µM | – | > 100 µM | > 100 µM | > 100 µM | > 100 µM | – | – | – | – | – | – | – | –
Cc1nn(C(=O)c2ccc(Cl)cc2)c2c1C(c1ccco1)SC(N)=N2 (stereo unspecified) | – | – | > 10 µM | > 10 µM | > 10 µM | > 10 µM | > 10 µM | > 10 µM | > 10 µM | – | – | – | – | – | – | – | –
CC1CN=C(N(C)C(=O)Nc2ccc(Cl)c(Cl)c2)S1 (stereo unspecified) | > 100 µM | > 100 µM | > 100 µM | – | > 100 µM | 91.4 µM | > 100 µM | 61.8 µM | – | – | – | – | – | – | – | – | –
O=C1C=C(NCCc2cc(Br)c(O)c(Br)c2)C(=O)c2[nH]cnc21 | > 100 µM | 30 µM | > 100 µM | 98 µM | 69.1 µM | > 100 µM | 33.6 µM | > 100 µM | – | – | – | – | – | – | – | – | –
COC(=O)C(N)CCCC(N)C(=O)NC(C)C(=O)NC(CCC(=O)NCCCNc1ccc([N+](=O)[O-])c2[nH]c3ccccc3c(=O)c12)C(N)=O (stereo unspecified) | 13.8 µM | – | 20.9 µM | 25.1 µM | 21.6 µM | 13 µM | – | 19.8 µM | 25.7 µM | – | – | – | – | – | – | – | –
c1csc(-c2nnc(C34CC5CC(CC(C5)C3)C4)o2)c1 | 15.6 µM | 39.4 µM | > 100 µM | 54.7 µM | 75.8 µM | 47.1 µM | > 100 µM | > 100 µM | – | – | – | – | – | – | – | – | –
O=C1CC(Cl)c2c(Cl)sc(Cl)c21 (stereo unspecified) | 3.67 µM | 6.63 µM | 31.7 µM | – | 22.8 µM | 3.15 µM | 5.94 µM | 3.18 µM | 13.3 µM | – | – | – | – | – | – | – | –
O=C1/C(=C2\SCC(=O)N2c2ccccc2)SC(=S)N1c1ccccc1 | – | > 100 µM | 82.7 µM | > 100 µM | – | > 100 µM | > 100 µM | 57.1 µM | > 100 µM | – | – | – | – | – | – | – | –
c1cn[nH]c1 | > 10 µM | > 10 µM | > 10 µM | > 10 µM | > 10 µM | > 10 µM | > 10 µM | – | – | – | – | – | – | – | – | – | –
C/C(NC(=O)c1ccccc1)=C(/C(=O)c1ccccc1)[C@@H]1OC(C)(C)O[C@@H]1[C@H]1COC(C)(C)O1 | 30.1 µM | > 100 µM | > 100 µM | > 100 µM | – | 45.5 µM | 39.1 µM | > 100 µM | 82.4 µM | – | – | – | – | – | – | – | –
CC(CN(C)C)C(=O)/C=C/c1ccc(Cl)c(Cl)c1 (stereo unspecified) | 3.22 µM | – | 12.9 µM | 40.8 µM | 51.1 µM | 2.99 µM | 6.03 µM | 4.42 µM | 4.45 µM | – | – | – | – | – | – | – | –
CC(C)C[C@H](NC(=O)[C@H](CCc1ccccc1)NC(=O)c1ccc2ccccc2n1)B(O)O | 0.588 µM | – | 0.305 µM | < 0.017 µM | 0.175 µM | 0.247 µM | – | 4.73 µM | 0.152 µM | – | – | – | – | – | – | – | –
Cn1c(=O)c2[nH]c(-n3nc(-c4ccccc4)cc3N)nc2n(C)c1=O | > 100 µM | 47 µM | > 100 µM | > 100 µM | – | – | > 100 µM | 15 µM | > 100 µM | – | – | – | – | – | – | – | –
Cc1[nH]c(=O)[nH]c(=O)c1C(=O)N(CCO)Cc1ccccc1 | > 100 µM | > 100 µM | > 100 µM | 83.6 µM | – | > 100 µM | > 100 µM | – | > 100 µM | – | – | – | – | – | – | – | –

— PubChem BioAssay (NCI)
